# Test results: patent US20080193376A1, “Methods of Enhanced Detection and Therapy of Inflamed Tissues Using Immune Modulation” (priority 2004, published 2008)
# Test system: atherosclerotic plaques
# Assay: Intravascular catheter beta probe detection of FDG in rabbit aorta
# Assay type: in vivo, New Zealand white rabbits
# From the text: Male New Zealand white rabbits ranging from 2.5 to 3.0 kilograms in weight (Charles River Breeding Lab) were maintained on a 2% cholesterol-6% peanut oil diet (ICN) for 10 weeks. After 1 week on the peanut oil diet, the abdominal aorta was denuded of endothelium by a modified Baumgartner technique. Briefly, each animal was anesthetized with a mixture of ketamine and xylazine and the right femoral artery was isolated. Subsequently, a 4 F Fogarty embolectomy catheter was introduced via arteriotomy and advanced under fluoroscopic guidance to the level of the diaphragm. The balloon was then inflated to 3 psi (pounds per square inch) above balloon inflation pressure and three passes were made down the abdominal aorta with the inflated catheter. […]
# Additionally, FDG was administered intravenously to two additional rabbits. […] Aortic segments at previously assessed sites of plaque and control areas were excised and examined for uptake of FDG by standard well counting.
# Sensitivity of the probe was 850±11 cps/μCi (mean±SD). Catheter-determined activity correlated well with well counting measurements, (r=0.89, P<0.001, FIG. 3). Moreover, atherosclerotic regions were readily distinguished from control by catheter mounted beta probe, (11.9±2.1 [n=9, range 9.7±15.3] vs. 4.8±1.9[n=14, range 1.3±7.3], cps in atherosclerotic vs. control regions, respectively, P<0.001; FIG. 4).
structure (smiles),measurement,setting,value
"OC[C@H]1OC(O)[C@H]([18F])[C@@H](O)[C@@H]1O (some centres unmarked) [FDG, ^18F-Fluorodeoxyglucose]",FDG activity by catheter mounted beta probe,"atherosclerotic regions, n=9, FDG intravenously",11.9±2.1 cps
same,FDG activity by catheter mounted beta probe,"control regions, n=14, FDG intravenously",4.8±1.9 cps
